Usually EC50 stands for the concentration that produces a half-maximal response. As usually defined, the IC50 is the point on the concentration scale where inhibition reaches its midpoint.

Where two headings read alike, the source gives them in different places. Numbered stars: 1 amine (or outer) side, 2 acyl side, 3 side chain; on linkers, the order of the positions; unused ones are H or OH. Bridge positions count the residues as written; N and C are the ends. Side chains are listed from the residue outwards. Peptide text beside a SMILES is read from it. * marks the point of attachment. C20 diacid = O=C(O)CCCCCCCCCCCCCCCCCCC(=O)*; γGlu = O=C(O)[C@H](CCC(=O)[*:2])N[*:1]

This note sets out measurements from patent US8575091B1, “Amylin analogues and pharmaceutical compositions thereof” (Novo Nordisk A/S, priority 2012, dated 2013).

The target of test [1] is T1, human amylin receptor (amylin 3(a) receptor: human calcitonin receptor + RAMP-3) (Homo sapiens, UniProt O60896+P30988).
T1 construct: expressed in transfected cells
T1 sequence (P30988 25-474): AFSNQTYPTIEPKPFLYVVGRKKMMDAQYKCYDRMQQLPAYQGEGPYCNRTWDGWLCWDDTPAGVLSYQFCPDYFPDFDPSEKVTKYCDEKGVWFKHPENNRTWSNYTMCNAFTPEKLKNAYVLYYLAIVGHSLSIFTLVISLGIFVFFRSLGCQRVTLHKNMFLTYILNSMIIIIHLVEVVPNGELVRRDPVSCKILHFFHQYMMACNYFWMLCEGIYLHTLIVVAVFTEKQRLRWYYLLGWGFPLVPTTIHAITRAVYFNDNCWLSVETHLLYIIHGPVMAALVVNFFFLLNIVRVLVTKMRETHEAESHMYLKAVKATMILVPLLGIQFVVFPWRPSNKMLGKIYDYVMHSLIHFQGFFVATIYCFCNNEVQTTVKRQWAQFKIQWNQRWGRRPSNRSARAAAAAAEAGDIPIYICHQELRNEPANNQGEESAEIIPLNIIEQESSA
T1 sequence (O60896 24-148 partner): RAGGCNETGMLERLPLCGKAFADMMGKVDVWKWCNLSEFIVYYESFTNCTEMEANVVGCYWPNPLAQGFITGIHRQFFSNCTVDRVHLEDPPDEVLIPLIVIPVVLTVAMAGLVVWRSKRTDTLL
In words: Assay (II)a functional assay, human amylin receptor (CRE luciferase, BHK cells). The test is classed as cell-based. As to conditions: for EC50: read-out: hAmylin-R funct. EC50.

The target of a further test is T2, human amylin receptor (Homo sapiens, UniProt O60896+P30988).
T2 construct: expressed in transfected cells
T2 sequence (P30988 25-474): T1 sequence (P30988 25-474)
T2 sequence (O60896 24-148 partner): T1 sequence (O60896 24-148 partner)
The test can be described thus: Assay (V) binding to the human amylin receptor (SPA, 125I-rat amylin). As to conditions: for IC50: human amylin receptor membranes, SPA, read-out: hAmylin-R bind IC50. In outline:
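SPA competition binding on membranes from Amylin 3(a)/CRE-luc cells, 35 ng/μL membranes with 0.05 mg/well beads. Buffer 50 mM Hepes pH 7.4, 1 mM CaCl2, 5 mM MgCl2, 0.1% OA, 0.02% Tween20. IC50 from one-site competition fit as affinity measure.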

For test [2], the target named is T3, human calcitonin receptor (Homo sapiens, UniProt P30988).
T3 construct: expressed in transfected cells
T3 sequence (P30988 25-474): T1 sequence (P30988 25-474)
In words: Assay (VII) binding to the human calcitonin receptor (SPA, 125I-Calcitonin).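 Note: cell membranes coupled to SPA beads, competitive displacement read by scintillation counting, IC50 derived from a one-site competition fit as a measure of receptor affinity.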 As to conditions: read-out: hCTR bind IC50.

Test [3] addresses T3, human calcitonin receptor. In words: Assay (II)a functional assay, human calcitonin receptor (CRE luciferase, BHK cells).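 Note: luminescence from a CRE-driven luciferase reporter, read by single photon counting after cells were exposed to test samples for 3 h at 37 °C under 5% CO2.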 The test is classed as cell-based. As to conditions: read-out: hCTR funct. EC50.
Setting [4] is: Table 6, human functional selectivity (hCTR EC50 / hAmylin-R EC50).

With `CC[C@H](C)[C@H](NC(=O)[C@H](C)NC(=O)CNC(=O)[C@H](Cc1ccccc1)NC(=O)[C@H](CC(N)=O)NC(=O)[C@@H]1CCCN1C(=O)[C@H](CO)NC(=O)[C@H](CO)NC(=O)[C@H](Cc1c[nH]cn1)NC(=O)[C@H](CCCNC(=N)N)NC(=O)[C@H](CC(C)C)NC(=O)[C@H](Cc1ccccc1)NC(=O)[C@H](CCC(=O)O)NC(=O)[C@H](C)NC(=O)[C@H](CC(C)C)NC(=O)[C@H](CCCNC(=N)N)NC(=O)[C@H](CCC(N)=O)NC(=O)[C@@H](NC(=O)[C@H](C)NC(=O)[C@@H]1CSSC[C@H](NC(=O)[C@@H](N)CCCCNC(=O)CC[C@H](NC(=O)CC[C@H](NC(=O)CCCCCCCCCCCCCCCCCCC(=O)O)C(=O)O)C(=O)O)C(=O)N[C@@H](CC(N)=O)C(=O)N[C@@H]([C@@H](C)O)C(=O)N[C@@H](C)C(=O)N[C@@H]([C@@H](C)O)C(=O)N1)[C@@H](C)O)C(=O)N1CCC[C@H]1C(=O)N[C@@H](CO)C(=O)N[C@@H](CO)C(=O)N[C@H](C(=O)N[C@@H](CC(N)=O)C(=O)N[C@H](C(=O)NCC(=O)N1CCC[C@H]1C(=O)N[C@@H](CC(N)=O)C(=O)N[C@H](C(=O)N[C@@H](Cc1ccccc1)C(N)=O)[C@@H](C)O)C(C)C)[C@@H](C)O` [Example 127] (H-K([γGlu-γGlu-C20 diacid])CNTATCATQRLAEFLRHSSPNFGAIPSSTNVGPNTF-NH2; disulfide 2-7), the “Ratio hCT/hAmylin funct.” value was 9.9 in test [1] (setting [4]); 9.9 in test [1] (Table 6a, human functional selectivity (hCTR EC50 / hAmylin-R EC50), at least 5); 9.9 in test [1] (Table 6i, hCTR funct. EC50 / hAmylin-R funct. EC50); 9.9 in test [1] (Table 6j, hCTR funct. EC50 / hAmylin-R funct. EC50); 9.9 in test [1] (Table 6k, hCTR funct. EC50 / hAmylin-R funct. EC50). Besides, the EC50 in test [1] (Table 6i, human amylin receptor functional) came out at 0.216 nM; in test [3] it was 2.14 nM. The “Ratio hCT/hAmylin binding” value is recorded as 18.0 on human amylin receptor (Table 7b, human calcitonin receptor binding IC50 divided by human amylin receptor binding IC50) and 18.0 at human amylin receptor (human binding ratio, included for comparison). The IC50 at human amylin receptor came out at 0.152 nM; in test [2], 2.73 nM.
On to `CC[C@H](C)[C@H](NC(=O)[C@H](C)NC(=O)CNC(=O)[C@H](Cc1ccccc1)NC(=O)[C@H](CC(N)=O)NC(=O)[C@@H]1CCCN1C(=O)[C@H](CO)NC(=O)[C@H](CO)NC(=O)[C@H](Cc1c[nH]cn1)NC(=O)[C@H](CCCNC(=N)N)NC(=O)[C@H](CC(C)C)NC(=O)[C@H](Cc1ccccc1)NC(=O)[C@H](CCC(=O)O)NC(=O)[C@H](C)NC(=O)[C@H](CC(C)C)NC(=O)[C@H](CCCNC(=N)N)NC(=O)[C@H](CCC(N)=O)NC(=O)[C@@H](NC(=O)[C@H](C)NC(=O)[C@@H]1CSSC[C@H](NC(=O)[C@H](CCCCN)NC(=O)CC[C@H](NC(=O)CCCCCCCCCCCCCCCCCCC(=O)O)C(=O)O)C(=O)N[C@@H](CC(N)=O)C(=O)N[C@@H]([C@@H](C)O)C(=O)N[C@@H](C)C(=O)N[C@@H]([C@@H](C)O)C(=O)N1)[C@@H](C)O)C(=O)N1CCC[C@H]1C(=O)N[C@@H](CO)C(=O)N[C@@H](CO)C(=O)N[C@H](C(=O)N[C@@H](CC(N)=O)C(=O)N[C@H](C(=O)NCC(=O)N[C@@H](CO)C(=O)N[C@@H](CCC(=O)O)C(=O)N[C@H](C(=O)N[C@@H](Cc1ccc(O)cc1)C(N)=O)[C@@H](C)O)C(C)C)[C@@H](C)O` [Example 22] ({C20 diacid-γGlu}-KCNTATCATQRLAEFLRHSSPNFGAIPSSTNVGSETY-NH2; disulfide 2-7), for which the “Ratio hCT/hAmylin funct.” value in test [1] (setting [4]) amounted to 3.8. Besides, the EC50 in test [1] (functional assay, human amylin receptor) amounted to 0.27 nM; in test [3], 1.03 nM. For the same compound, the values for the IC50 (at human amylin receptor; in test [2]) were 0.794 nM and 9.73 nM, respectively.
